Test results published in patent publication US8309550B2, “Kinase inhibitors and their use as pharmaceutical agents” (Shanghai Genomics, Inc., priority 2011, dated 2012).
Read-outs that look alike come from different tables or passages of the source.

Experiments:
[1] = Pharmacokinetic determination, rat IV/PO study; type: in vivo; conditions: for MRT inf: read-out: MRT(0-∞)
Experimental: Male Sprague-Dawley rats were maintained on food and water ad libitum. They were housed in an individual ventilated caging system. The test compound at a dose of 5 mg/kg and 20 mg/kg was given i.v. and orally to SD rats respectively (3 animals per group). The appropriate quantity compound with free base (Wt.: 346.1) was accurately weighted into a tube and dissolved in NMP, vortexed to get a clear solution. 0.015N HCl in Saline was added and the solution was vortexed to yield a clear and colorless solution at 1 mg/mL for both intravenous and oral administration. The concentration of the test compound in the dosing solution was reconfirmed by HPLC method. […] Plasma samples were collected from retro-orbital puncture at pre-dose and 0.083, 0.25, 0.5, 1, 2, 4, 6, 8, and 24 hours post-dose. All samples and the dose formulation were stored at −20° C. until bioanalysis. The concentrations of the test compound in plasma were determined using a high performance liquid chromatography/mass spectrometry (HPLC/MS/MS) method.

[2] = system: Xenograft tumor models (HT-29, H460, Molt-4, PC-3M, HL60); experiment: Xenograft studies with human tumor cell lines; type: in vivo, BALB/c nude mice; conditions: i.p, qd, 21 days, dosage from 12.5 mg/kg to 100 mg/kg; significant with p<0.05 (T-test)
Experimental: Female BALB/c nude mice from SHANGHAI SLAC LABORATORY ANIMAL CO with age of 5 to 6 weeks and body weight of 19 to 20 g were used in the study. Autoclaved water and irradiated food were provided ad libitum, and animals were maintained on a 12-hour light and 12-hour dark cycle. Cages, bedding, and water bottles were autoclaved before use and changed weekly. The health of all animals was determined by daily gross observation of experimental animals, and analyses of blood samples of sentinel animals housed on shared shelf racks. All animals were allowed to acclimate and recover from any shipping-related stress for a minimum of 72 hours before experimental use. All animal experiments were conducted according to the guidelines of Chinese.
Xenograft tumor models were established with human tumor cell lines. […] Tumor growth was monitored twice per week until the tumor reached to a volume of 100 mm^3. […]
Mortality checks were conducted daily. Body weight of the mice was determined twice a week. […] Weight loss was calculated as percentage change in mean group body weight using the following formula: [(W−W0)/W0]×100, where ‘W’ represents mean body weight of the treated group at a particular day and ‘W0’ represents mean body weight of the same treated group at initiation of treatment. Tumor volumes (in mm3) were calculated after 21 days drug administration. […]

[3] = male, Sprague-Dawley, plasma, IV (5 mg/kg)
[4] = male, Sprague-Dawley, plasma, PO (20 mg/kg)

F* ([1]; PO (20 mg/kg) vs IV (5 mg/kg)) [%]	AUC(0-inf) [1, 3] [ng·h/mL]	AUC(0-t) [1, 3] [ng·h/mL]	Cmax [1, 3] [ng/mL]	Tmax [1, 3] [min]	clearance [1, 3] [mL/min/kg]	half-life [1, 3] [min]	MRT inf [1, 3] [min]	Vd ([1]; male, Sprague-Dawley, plasma, IV (5 mg/kg), read-out: Vz) [L/kg]	AUC(0-inf) [1, 4] [ng·h/mL]	AUC(0-t) [1, 4] [ng·h/mL]	Cmax [1, 4] [ng/mL]	Tmax [1, 4] [min]	half-life [1, 4] [min]	MRT inf [1, 4] [min]	Structure (SMILES)	oral availability and t 1/2 after oral administration (in words) ([1]; oral administration)	anti-tumor activities in xenograft mice [2]
67.51	545	543	963	4.98	156	42	40.2	9.6	1490	1470	895	34.8	74.4	100	CCn1cc(-c2ccnc(Nc3cccc(S(N)(=O)=O)c3)n2)c2cccnc21 [Compound 18, 3-(4-(1-Ethyl-1H-pyrrolo[2,3-b]pyridin-3-yl)pyrimidin-2-ylamino)benzenesulfonamide]	This result showed that compound 18 has good oral availability and t 1/2 after oral administration.	–
–	–	–	–	–	–	–	–	–	–	–	–	–	–	–	CCCn1cc(-c2ccnc(Nc3ccc(C)c(S(=O)(=O)N4CCOCC4)c3)n2)c2ccncc21 [Compound 102, N-(4-Methyl-3-(morpholinosulfonyl)phenyl)-4-(1-propyl-1H-pyrrolo[2,3-c]pyridin-3-yl)pyrimidin-2-amine]	–	showed anti-tumor activities
